Assay results published in patent US9216173B2, “2-Pyridyl carboxamide-containing spleen tyrosine kinase (SYK) inhibitors” (Merck Sharp & Dohme Corp., priority 2011, dated 2015).

Biological target: T1, recombinant human GST-SYK (Homo sapiens, UniProt P43405)
T1 construct: purchased Carna Biosciences 08-176
Experiment: Homogeneous Time-Resolved Fluorescence (HTRF) assay for the recombinant human Syk enzyme
Format: biochemical
Details: GST-hSYK 5 pM, ATP 25 μM, 10-dose titration 10 μM to 0.508 nM; read-out: rhSYK Activity (IC50 rating)
Method in brief: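 GST-hSYK fusion phosphorylates a peptide for 45 min at room temperature. Quenched with EDTA buffer containing 2 nM Eu-anti-phosphotyrosine antibody and 70 nM SA-APC. HTRF signal read after 30 min.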

Row | Structure (SMILES) | IC50
1 | Cc1nc(Nc2cc(N[C@@H]3CCCC[C@@H]3N)cnc2C(N)=O)ccc1-c1ccc(CO)cc1 [Example 3.7, 5-{[(1R,2S)-2-aminocyclohexyl]amino}-3-({5-[4-(hydroxymethyl)phenyl]-6-methylpyridin-2-yl}amino)pyridine-2-carboxamide] | < 10 nM
2 | Cc1nc(Nc2cc(N[C@@H]3CCCC[C@@H]3N)cnc2C(N)=O)ccc1-c1ccc(C(O)C(F)F)cc1 (stereo partly drawn) [Example 3.8, 5-{[(1R,2S)-2-aminocyclohexyl]amino}-3-({5-[4-(2,2-difluoro-1-hydroxyethyl)phenyl]-6-methylpyridin-2-yl}amino)pyridine-2-carboxamide] | < 10 nM
3 | Cc1nc(Nc2cc(N[C@@H]3CCCC[C@@H]3N)cnc2C(N)=O)ccc1-c1ccc2nnn(C)c2c1 [Example 3.9, 5-{[(1R,2S)-2-aminocyclohexyl]amino}-3-{[6-methyl-5-(1-methyl-1H-benzotriazol-6-yl)pyridin-2-yl]amino}pyridine-2-carboxamide] | < 10 nM
4 | Cc1nc(Nc2cc(N[C@@H]3CCCC[C@@H]3N)cnc2C(N)=O)ccc1-c1ccc(OC(F)F)cc1 [Example 3.10, 5-{[(1R,2S)-2-aminocyclohexyl]amino}-3-({5-[4-(difluoromethoxy)phenyl]-6-methylpyridin-2-yl}amino)pyridine-2-carboxamide] | < 10 nM
5 | Cc1nc(Nc2cc(N[C@@H]3CCCC[C@@H]3N)cnc2C(N)=O)ccc1-c1cccc(C(O)C(F)(F)F)c1 (stereo partly drawn) [Example 3.11, 5-{[(1R,2S)-2-aminocyclohexyl]amino}-3-({6-methyl-5-[3-(2,2,2-trifluoro-1-hydroxyethyl)phenyl]pyridin-2-yl}amino)pyridine-2-carboxamide] | < 10 nM
6 | Cc1nc(Nc2cc(N[C@@H]3CCCC[C@@H]3N)cnc2C(N)=O)ccc1-c1cccc2c1CNC2=O [Example 3.12, 5-{[(1R,2S)-2-aminocyclohexyl]amino}-3-{[6-methyl-5-(1-oxo-2,3-dihydro-1H-isoindol-4-yl)pyridin-2-yl]amino}pyridine-2-carboxamide] | < 10 nM
7 | Cc1nc(Nc2cc(N[C@@H]3CCCC[C@@H]3N)cnc2C(N)=O)ccc1-c1ccc(N2CCN(C)CC2)cc1 [Example 3.13, 5-{[(1R,2S)-2-aminocyclohexyl]amino}-3-({6-methyl-5-[4-(4-methylpiperazin-1-yl)phenyl]pyridin-2-yl}amino)pyridine-2-carboxamide] | < 10 nM
8 | Cc1nc(Nc2cc(N[C@@H]3CCCC[C@@H]3N)cnc2C(N)=O)ccc1-c1cccc(N2CCN(C)CC2)c1 [Example 3.14, 5-{[(1R,2S)-2-aminocyclohexyl]amino}-3-({6-methyl-5-[3-(4-methylpiperazin-1-yl)phenyl]pyridin-2-yl}amino)pyridine-2-carboxamide] | < 10 nM
9 | Cc1nc(Nc2cc(N[C@@H]3CCCC[C@@H]3N)cnc2C(N)=O)ccc1-c1ccc(-n2nccn2)cc1 [Example 3.15, 5-{[(1R,2S)-2-aminocyclohexyl]amino}-3-({6-methyl-5-[4-(2H-1,2,3-triazol-2-yl)phenyl]pyridin-2-yl}amino)pyridine-2-carboxamide] | < 10 nM
10 | Cc1nc(Nc2cc(N[C@@H]3CCCC[C@@H]3N)cnc2C(N)=O)ccc1-c1ccc2c(c1)C(=O)NC2 [Example 3.16, 5-{[(1R,2S)-2-aminocyclohexyl]amino}-3-{[6-methyl-5-(3-oxo-2,3-dihydro-1H-isoindol-5-yl)pyridin-2-yl]amino}pyridine-2-carboxamide] | < 10 nM
11 | Cc1nc(Nc2cc(N[C@@H]3CCCC[C@@H]3N)cnc2C(N)=O)ccc1-c1ccc2c(c1)CNC2=O [Example 3.17, 5-{[(1R,2S)-2-aminocyclohexyl]amino}-3-{[6-methyl-5-(1-oxo-2,3-dihydro-1H-isoindol-5-yl)pyridin-2-yl]amino}pyridine-2-carboxamide] | < 10 nM
12 | Cc1nc(Nc2cc(N[C@@H]3CCCC[C@@H]3N)cnc2C(N)=O)ccc1-c1ccc2c(cnn2C)c1 [Example 3.18, 5-{[(1R,2S)-2-aminocyclohexyl]amino}-3-{[6-methyl-5-(1-methyl-1H-indazol-5-yl)pyridin-2-yl]amino}pyridine-2-carboxamide] | < 10 nM
13 | Cc1nc(Nc2cc(N[C@@H]3CCCC[C@@H]3N)cnc2C(N)=O)ccc1-c1cccc(N(C)S(C)(=O)=O)c1 [Example 3.19, 5-{[(1R,2S)-2-aminocyclohexyl]amino}-3-[(6-methyl-5-{3-[methyl(methylsulfonyl)amino]phenyl}pyridin-2-yl)amino]pyridine-2-carboxamide] | < 10 nM
14 | Cc1nc(Nc2cc(N[C@@H]3CCCC[C@@H]3N)cnc2C(N)=O)ccc1-c1cccc(-n2nccn2)c1 [Example 3.20, 5-{[(1R,2S)-2-aminocyclohexyl]amino}-3-({6-methyl-5-[3-(2H-1,2,3-triazol-2-yl)phenyl]pyridin-2-yl}amino)pyridine-2-carboxamide] | < 10 nM
15 | Cc1nc(Nc2cc(N[C@@H]3CCCC[C@@H]3N)cnc2C(N)=O)ccc1-c1ccc2c(=O)nc[nH]c2c1 [Example 3.21, 5-{[(1R,2S)-2-aminocyclohexyl]amino}-3-{[6-methyl-5-(4-oxo-1,4-dihydroquinazolin-7-yl)pyridin-2-yl]amino}pyridine-2-carboxamide] | < 10 nM
16 | COc1ccc(-c2ccc(Nc3cc(N[C@@H]4CCCC[C@@H]4N)cnc3C(N)=O)nc2C)cn1 [Example 3.22, 5-{[(1R,2S)-2-aminocyclohexyl]amino}-3-[(6′-methoxy-2-methyl-3,3′-bipyridin-6-yl)amino]pyridine-2-carboxamide] | < 10 nM
17 | COc1ncc(-c2ccc(Nc3cc(N[C@@H]4CCCC[C@@H]4N)cnc3C(N)=O)nc2C)cn1 [Example 3.24, 5-{[(1R,2S)-2-aminocyclohexyl]amino}-3-{[5-(2-methoxypyrimidin-5-yl)-6-methylpyridin-2-yl]amino}pyridine-2-carboxamide] | < 10 nM
18 | Cc1nc(Nc2cc(N[C@@H]3CCCC[C@@H]3N)cnc2C(N)=O)ccc1-c1cncnc1 [Example 3.25, 5-{[(1R,2S)-2-aminocyclohexyl]amino}-3-[(6-methyl-5-pyrimidin-5-ylpyridin-2-yl)amino]pyridine-2-carboxamide] | < 10 nM
19 | COc1ncccc1-c1ccc(Nc2cc(N[C@@H]3CCCC[C@@H]3N)cnc2C(N)=O)nc1C [Example 3.26, 5-{[(1R,2S)-2-aminocyclohexyl]amino}-3-[(2′-methoxy-2-methyl-3,3′-bipyridin-6-yl)amino]pyridine-2-carboxamide] | < 10 nM
20 | Cc1nc(Nc2cc(N[C@@H]3CCCC[C@@H]3N)cnc2C(N)=O)ccc1-c1ccc2cccnc2c1 [Example 3.27, 5-{[(1R,2S)-2-aminocyclohexyl]amino}-3-[(6-methyl-5-quinolin-7-ylpyridin-2-yl)amino]pyridine-2-carboxamide] | < 10 nM
21 | Cc1cccc(-c2ccc(Nc3cc(N[C@@H]4CCCC[C@@H]4N)cnc3C(N)=O)nc2C)c1O [Example 3.28, 5-{[(1R,2S)-2-aminocyclohexyl]amino}-3-{[5-(2-hydroxy-3-methylphenyl)-6-methylpyridin-2-yl]amino}pyridine-2-carboxamide] | 10 to 100 nM
22 | Cc1nc(Nc2cc(N[C@@H]3CCCC[C@@H]3N)cnc2C(N)=O)ccc1-c1ccc(-c2nccn2C)cc1 [Example 3.29, 5-{[(1R,2S)-2-aminocyclohexyl]amino}-3-({6-methyl-5-[4-(1-methyl-1H-imidazol-2-yl)phenyl]pyridin-2-yl}amino)pyridine-2-carboxamide] | < 10 nM
23 | Cc1nc(Nc2cc(N[C@@H]3CCCC[C@@H]3N)cnc2C(N)=O)ccc1-c1ccc(-c2ncco2)cc1 [Example 3.30, 5-{[(1R,2S)-2-aminocyclohexyl]amino}-3-({6-methyl-5-[4-(1,3-oxazol-2-yl)phenyl]pyridin-2-yl}amino)pyridine-2-carboxamide] | < 10 nM
24 | Cc1nc(Nc2cc(N[C@@H]3CCCC[C@@H]3N)cnc2C(N)=O)ccc1-c1ccc2c(c1)n(C)c(=O)n2C [Example 3.31, 5-{[(1R,2S)-2-aminocyclohexyl]amino}-3-{[5-(1,3-dimethyl-2-oxo-2,3-dihydro-1H-benzimidazol-5-yl)-6-methylpyridin-2-yl]amino}pyridine-2-carboxamide] | < 10 nM
25 | Cc1nc(Nc2cc(N[C@@H]3CCCC[C@@H]3N)cnc2C(N)=O)ccc1-c1ccc(C)c2ncccc12 [Example 3.32, 5-{[(1R,2S)-2-aminocyclohexyl]amino}-3-{[6-methyl-5-(8-methylquinolin-5-yl)pyridin-2-yl]amino}pyridine-2-carboxamide] | < 10 nM
26 | Cc1cc(-c2ccccc2)cc(Nc2cc(N[C@@H]3CCCC[C@@H]3N)cnc2C(N)=O)n1 [Example 4.1, 5-{[(1R,2S)-2-aminocyclohexyl]amino}-3-[(6-methyl-4-phenylpyridin-2-yl)amino]pyridine-2-carboxamide] | < 10 nM
27 | Cc1cc(-c2cccnc2)cc(Nc2cc(N[C@@H]3CCCC[C@@H]3N)cnc2C(N)=O)n1 [Example 4.2, 5-{[(1R,2S)-2-aminocyclohexyl]amino}-3-[(6′-methyl-3,4′-bipyridin-2′-yl)amino]pyridine-2-carboxamide] | < 10 nM
28 | Cc1cc(-c2cnn(C)c2)cc(Nc2cc(N[C@@H]3CCCC[C@@H]3N)cnc2C(N)=O)n1 [Example 4.3, 5-{[(1R,2S)-2-aminocyclohexyl]amino}-3-{[6-methyl-4-(1-methyl-1H-pyrazol-4-yl)pyridin-2-yl]amino}pyridine-2-carboxamide] | < 10 nM
29 | Cc1cc(-c2ccnn2C)cc(Nc2cc(N[C@@H]3CCCC[C@@H]3N)cnc2C(N)=O)n1 [Example 4.4, 5-{[(1R,2S)-2-aminocyclohexyl]amino}-3-{[6-methyl-4-(1-methyl-1H-pyrazol-5-yl)pyridin-2-yl]amino}pyridine-2-carboxamide] | < 10 nM
30 | Cc1nc(Nc2cc(N[C@@H]3CCCC[C@@H]3N)cnc2C(N)=O)ccc1OC(C)C [Example 5.1, 5-{[(1R,1S)-2-aminocyclohexyl]amino}-3-{[6-methyl-5-(propan-2-yloxy)pyridin-2-yl]amino}pyridine-2-carboxamide] | < 10 nM
